The target of this experiment is S. cerevisiae eIF2B mutant, luciferase reporter luminescence. The experiment can be described thus: potency on yeast eIF2B luminescence signal – S. cerevisiae, mutant, wild-type, growth, dose response (AID 792).
Setting [1] is: measured here: mutant yeast growth.
The mark [2] stands for this setting: S. cerevisiae wild-type, luminescence.

This is an account of results in PubChem BioAssay AID792 (PCMD, 2007).

Results filed as inconclusive are left out. The source made the active and inactive calls. The rule behind the calls is not given here.

Broadly, the IC50 is the midpoint of a concentration-inhibition curve. Turning to `CCCCCOC(=O)Cn1c(SCC(=O)Nc2ccccc2)nc2c1c(=O)[nH]c(=O)n2C`, the IC50 was > 100 µM (inactive). In addition, under setting [1], the IC50 is > 100 µM.

On to `CCOc1ccc2cc(/C=C/C(=O)c3ccco3)c(Cl)nc2c1`, for which the IC50 was > 100 µM (inactive). Under setting [1], the IC50 is > 100 µM.

Turning to `COC(=O)c1cc(O)c(OCc2ccccc2)c(O)c1`, the IC50 was > 100 µM (inactive). The IC50 under setting [1] is > 100 µM.

As to `COc1ccc(Nc2oc(COc3cccc(C)c3)nc2C#N)cc1`, the IC50 is > 100 µM (inactive). For the same compound, the IC50 under setting [1] was > 100 µM.

For `Cc1ccc(C)c(N2CCN(C(=O)c3ccc(CS(=O)(=O)c4ccccc4C)o3)CC2)c1`, the IC50 is > 100 µM (inactive). The IC50 under setting [1] was > 100 µM.

Consider `CCOC(=O)c1c(C)[nH]c(C(=O)Nc2ccc3c(c2)OCO3)c1C`, for which the IC50 is > 100 µM (inactive). Also, the IC50 under setting [1] is > 100 µM.

In the case of `CCCOCC1CC2(CC(C)(c3csc(N)n3)OC2=O)C(=O)O1` (centres undefined), the IC50 was > 100 µM (inactive). Further, the IC50 under setting [1] was > 100 µM.

In the case of `O=C(CCSc1nnc(-c2ccco2)o1)Nc1ccc(Cl)cc1`, the IC50 was > 100 µM (inactive). The IC50 under setting [1] is > 100 µM.

For `Cn1c(/C(C#N)=C(\O)CN2CCN(Cc3ccccc3)CC2)nc2ccccc21`, the IC50 was > 100 µM (inactive). Moreover, the IC50 under setting [1] is > 100 µM.

Consider `Cc1ccc(SCc2cc(=O)[nH]c(N3CCN(Cc4ccc5c(c4)OCO5)CC3)n2)cc1`, for which the IC50 was > 100 µM (inactive). Moreover, the IC50 under setting [1] was > 100 µM.

Take `Cc1ccc(CN(CC2CCCO2)C(=O)CN2C(=O)C(C(C)C)Oc3ccccc32)o1` (centres undefined): the IC50 result is “inactive”. In addition, under setting [2], the IC50 is > 100 µM. Under setting [1], the IC50 was found to be 14.2 µM.

`CC(NC(=O)Nc1ccc(F)cc1F)c1ccncc1` (centres undefined): the IC50 is > 100 µM (inactive). In addition, the IC50 under setting [1] was > 100 µM.

As to `Cc1nn(-c2ccccc2)c2c1C(c1c(C)[nH]c(C#N)c1C)C(C#N)=C(N)O2` (centres undefined), the IC50 was > 100 µM (inactive). In addition, the IC50 under setting [1] was > 100 µM.

Consider `COc1ccc(C2=CC(c3sccc3C)n3nnnc3N2)cc1` (centres undefined), for which the IC50 is > 100 µM (inactive). Besides, the IC50 under setting [1] is > 100 µM.

For `Fc1ccc2nc(Nc3nc4c(s3)CCCC4)sc2c1`, the IC50 was > 100 µM (inactive). In addition, the concentration for half-maximal inhibition (IC50) under setting [1] was > 100 µM.

With `O=C(NCCc1ccccn1)c1cccc(S(=O)(=O)N2CCCCCC2)c1`, the IC50 was > 100 µM (inactive). Further, the IC50 under setting [1] is > 100 µM.

`Cc1cccc(-n2c(SCC(=O)Nc3nonc3C)nnc2-c2ccoc2C)c1`: the IC50 was > 100 µM (inactive). In addition, the IC50 under setting [1] was > 100 µM.

As to `COc1ccc2c(c1)CCc1c(C(=O)NCc3cccnc3)noc1-2`, the IC50 is > 100 µM (inactive). Moreover, the IC50 under setting [1] was > 100 µM.

`Cc1ccc(NC(=O)c2ccc(S(=O)(=O)N3CCCCC3)cc2)cc1`: the IC50 is > 100 µM (inactive). Further, under setting [1], the IC50 is > 100 µM.

As to `CC(=O)c1cnc(Nc2nc(C)c3cc(C)c(C)cc3n2)nc1C`, the IC50 was > 100 µM (inactive). In addition, the IC50 under setting [1] was > 100 µM.

Turning to `CCCCn1nnnc1SCC(=O)N1CCOCC1`, the IC50 is > 100 µM (inactive). Moreover, the IC50 under setting [1] was > 100 µM.

Regarding `Cc1cc(C)cc(OCc2nnc(SCC(=O)N3CCN(c4ccccc4)CC3)o2)c1`, the IC50 was > 100 µM (inactive). Besides, the IC50 under setting [1] was > 100 µM.

Regarding `COCCn1c(-c2ccccc2)cc(C(=O)O)c1C`, the IC50 was > 100 µM (inactive). Further, the IC50 under setting [1] was > 100 µM.

With `O=C(CC(Nc1ccccc1)C(=O)O)c1ccccc1` (centres undefined), the IC50 is > 100 µM (inactive). Besides, the IC50 under setting [1] is > 100 µM.

Regarding `C=CCSc1nnc2c(n1)OC(c1cccnc1)N(C(C)=O)c1ccccc1-2` (centres undefined), the IC50 is > 100 µM (inactive). The IC50 under setting [1] was > 100 µM.

Regarding `COc1ccc2c(c1)CCc1c(C(=O)N3CC4(C)CC3CC(C)(C)C4)noc1-2` (centres undefined), the IC50 was > 100 µM (inactive). Further, the IC50 under setting [1] is > 100 µM.

Regarding `CCCc1nc(-c2ccccc2O)n(-c2ccccc2)n1`, the IC50 was > 100 µM (inactive). In addition, under setting [1], the IC50 is > 100 µM.

For the compound `COc1ccc(-c2cc3nc(C)cc(N)n3n2)cc1`, the IC50 result was “inactive”. In addition, under setting [2], the IC50 was determined as 3.87 µM. Also, the IC50 under setting [1] is > 100 µM.

`Cc1ccc2c(c1)C1CN(C)CCC1N2C(=O)Nc1cccc(Cl)c1` (centres undefined): the IC50 is > 100 µM (inactive). Moreover, under setting [1], the IC50 is > 100 µM.

In the case of `Cc1cc(NC(=O)CN2CCCC(C)C2)n(-c2nc3ccccc3s2)n1` (centres undefined), the IC50 was > 100 µM (inactive). Under setting [1], the IC50 is > 100 µM.

With `N#Cc1c(N2CCOCC2)nc(-c2ccco2)c2c1CCCC2`, the IC50 is > 100 µM (inactive). Also, the IC50 under setting [1] was > 100 µM.

As to `Cc1ccccc1C(=O)Nc1ccccn1`, the IC50 is > 100 µM (inactive). The IC50 under setting [1] is > 100 µM.

Take `Cc1cnc(NC(=O)CN(C)S(=O)(=O)c2ccc(Cl)cc2)s1`: the IC50 is > 100 µM (inactive). Besides, under setting [1], the IC50 is > 100 µM.

As to `O=c1c(Cl)c(NCCCO)cnn1-c1nc2ccccc2[nH]1`, the IC50 entry is “inactive”. Under setting [2], this compound displayed an IC50 of 15.9 µM. This compound also had an IC50 under setting [1] of 29.2 µM.

On to `CSc1ccccc1NC(=O)c1noc2c1CCC2`, for which the IC50 was > 100 µM (inactive). Moreover, the IC50 under setting [1] is > 100 µM.

As for `O=C1c2ccncc2C(=O)N1C1CCCCC1`, the IC50 was > 100 µM (inactive). The IC50 under setting [1] is > 100 µM.

As for `Cc1ccc(NC(=O)CN(C)C(=O)CSc2nc3ccccc3o2)cc1`, the IC50 was > 100 µM (inactive). For the same compound, under setting [1], the IC50 was > 100 µM.

As to `COc1ccccc1Nc1nc(C)cc(C)c1C(N)=O`, the IC50 was > 100 µM (inactive). The IC50 under setting [1] was > 100 µM.

Take `Cc1nc(N2CCN(C(=O)c3ccco3)CC2)c2c3c(sc2n1)CCCC3`: the IC50 was > 100 µM (inactive). Besides, the IC50 under setting [1] is > 100 µM.

Turning to `CN1C(=O)N(C)C2(c3ccccc3)NC(=O)NC12c1ccccc1` (centres undefined), the IC50 was > 100 µM (inactive). Moreover, the IC50 under setting [1] was > 100 µM.

Turning to `Cc1cccn2c(=O)c3cc(C(=O)N4c5ccccc5CC4C)n(C)c3nc12` (centres undefined), the IC50 is > 100 µM (inactive). Also, the IC50 under setting [1] was > 100 µM.

On to `COc1ccc(Cl)cc1C(=O)N1CCN(c2ccccn2)CC1`, for which the IC50 was > 100 µM (inactive). Also, under setting [1], the IC50 was > 100 µM.

Take `Cc1cccc(N2C(=O)C3C4C=CC(C4)C3C2=O)c1` (centres undefined): the IC50 is > 100 µM (inactive). The IC50 under setting [1] was > 100 µM.

Take `Cc1cc(C)n(-c2cc(C(C)(C)C)nc3c(-c4ccc(Cl)cc4)cnn23)n1`: the IC50 was > 100 µM (inactive). Besides, under setting [1], the IC50 was > 100 µM.

For the compound `CCOc1ccc(C2NC(=O)NC(C)=C2C(=O)OC)cc1C` (centres undefined), the IC50 entry was “inactive”. Further, the IC50 under setting [1] stood at 33.3 µM.

For `COc1ccccc1NC(=O)Cc1csc(N)n1`, the IC50 was > 100 µM (inactive). The IC50 under setting [1] is > 100 µM.

As to `CCn1c(SCC(=O)Nc2oc(-c3ccccc3)c(-c3ccccc3)c2C#N)nnc1-c1ccco1`, the IC50 is > 100 µM (inactive). Besides, the IC50 under setting [1] is > 100 µM.

`O=C(CCC1COc2ccccc2O1)Nc1ccc(Cl)cn1` (centres undefined): the IC50 was > 100 µM (inactive). Besides, under setting [1], the IC50 is > 100 µM.
